SMILES strings stand for the structures. pIC50, pKi: −log10 of the molar value.

The target of series [1] is T1, 5-hydroxytryptamine receptor 7 (Homo sapiens, UniProt P34969). Briefly: Displacement of [3H]5-HT from human 5-HT7 receptor expressed in CHO cells by liquid scintillation counting analysis. The format is cell-based.
Series [2] addresses T2, 5-hydroxytryptamine receptor 2B (Homo sapiens, UniProt P41595). Briefly: Displacement of [3H]Mesulergine from human 5-HT2B receptor expressed in HEK293 cells by liquid scintillation counting analysis. The format is cell-based.
Series [3] concerns Cavia porcellus. Briefly: Suppression of 5-HT induced dural FITC-labeled BSA extravasation in Hartley guinea pig at 3 mg/kg, ip pretreated for 30 mins followed by FITC-labeled BSA administration measured after 16 hrs by fluorescence assay relative to control. The format is functional. The following applies: route intraperitoneal.
Series [4] deals with Cavia porcellus. Briefly: Suppression of 5-HT induced dural FITC-labeled BSA extravasation in po dosed Hartley guinea pig pretreated for 30 mins followed by FITC-labeled BSA administration measured after 16 hrs by fluorescence assay. The format is functional, organism-based.
The target of series [5] is 5-hydroxytryptamine receptor 2A (Homo sapiens, UniProt P28223). In words: Binding affinity to 5-HT2A receptor (unknown origin).
In series [6] the test system is Cavia porcellus. Briefly: Suppression of 5-HT induced dural FITC-labeled BSA extravasation in ip dosed Hartley guinea pig pretreated for 30 mins followed by FITC-labeled BSA administration measured after 16 hrs by fluorescence assay. The format is functional, organism-based.
For series [7], the target named is T3, 5-hydroxytryptamine receptor 2C (Homo sapiens, UniProt P28335).
T3 sequence (P28335 whole entry): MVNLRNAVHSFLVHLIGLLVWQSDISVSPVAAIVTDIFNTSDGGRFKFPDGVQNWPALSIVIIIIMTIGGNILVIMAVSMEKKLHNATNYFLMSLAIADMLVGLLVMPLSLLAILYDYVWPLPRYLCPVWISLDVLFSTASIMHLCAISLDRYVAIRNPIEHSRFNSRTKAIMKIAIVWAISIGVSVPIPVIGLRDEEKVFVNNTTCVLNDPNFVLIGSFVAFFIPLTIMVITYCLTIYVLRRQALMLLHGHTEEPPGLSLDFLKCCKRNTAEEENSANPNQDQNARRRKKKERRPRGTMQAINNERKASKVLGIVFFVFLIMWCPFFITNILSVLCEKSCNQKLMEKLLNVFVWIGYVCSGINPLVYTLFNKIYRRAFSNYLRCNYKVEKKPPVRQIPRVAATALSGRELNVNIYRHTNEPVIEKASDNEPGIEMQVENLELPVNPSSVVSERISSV
Briefly: Binding affinity to 5-HT2C receptor (unknown origin).

In series [8] the target is T4, Adrenergic receptor alpha-1 (Homo sapiens, UniProt P35348+P25100+P35368).
T4 sequence (P35348 whole entry): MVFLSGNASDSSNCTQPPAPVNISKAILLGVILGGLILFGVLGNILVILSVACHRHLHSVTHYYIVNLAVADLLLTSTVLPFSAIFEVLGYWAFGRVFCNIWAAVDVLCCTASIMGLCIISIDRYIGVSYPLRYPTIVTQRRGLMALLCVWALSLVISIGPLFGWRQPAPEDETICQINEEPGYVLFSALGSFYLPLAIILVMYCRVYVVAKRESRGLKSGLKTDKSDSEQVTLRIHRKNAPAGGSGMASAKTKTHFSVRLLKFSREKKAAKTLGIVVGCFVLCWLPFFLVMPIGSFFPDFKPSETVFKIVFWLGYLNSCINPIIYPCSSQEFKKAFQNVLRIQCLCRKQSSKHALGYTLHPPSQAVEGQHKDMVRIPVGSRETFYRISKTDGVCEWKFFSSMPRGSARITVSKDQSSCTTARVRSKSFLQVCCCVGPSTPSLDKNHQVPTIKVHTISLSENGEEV
T4 sequence (P25100 whole entry): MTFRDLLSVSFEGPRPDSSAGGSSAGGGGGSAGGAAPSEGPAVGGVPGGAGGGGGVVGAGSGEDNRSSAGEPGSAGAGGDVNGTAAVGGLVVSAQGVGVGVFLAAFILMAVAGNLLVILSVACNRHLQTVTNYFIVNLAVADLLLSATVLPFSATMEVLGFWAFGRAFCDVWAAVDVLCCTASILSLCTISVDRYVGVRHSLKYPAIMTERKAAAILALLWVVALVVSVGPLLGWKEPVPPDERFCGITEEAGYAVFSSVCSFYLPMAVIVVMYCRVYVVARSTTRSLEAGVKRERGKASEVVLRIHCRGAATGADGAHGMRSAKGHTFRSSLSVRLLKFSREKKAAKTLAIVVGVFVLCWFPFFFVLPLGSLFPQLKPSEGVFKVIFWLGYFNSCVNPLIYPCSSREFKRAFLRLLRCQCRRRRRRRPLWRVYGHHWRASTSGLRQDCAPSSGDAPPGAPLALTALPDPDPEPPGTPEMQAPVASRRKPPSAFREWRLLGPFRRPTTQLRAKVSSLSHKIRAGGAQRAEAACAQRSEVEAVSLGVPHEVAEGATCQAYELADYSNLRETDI
T4 sequence (P35368 whole entry): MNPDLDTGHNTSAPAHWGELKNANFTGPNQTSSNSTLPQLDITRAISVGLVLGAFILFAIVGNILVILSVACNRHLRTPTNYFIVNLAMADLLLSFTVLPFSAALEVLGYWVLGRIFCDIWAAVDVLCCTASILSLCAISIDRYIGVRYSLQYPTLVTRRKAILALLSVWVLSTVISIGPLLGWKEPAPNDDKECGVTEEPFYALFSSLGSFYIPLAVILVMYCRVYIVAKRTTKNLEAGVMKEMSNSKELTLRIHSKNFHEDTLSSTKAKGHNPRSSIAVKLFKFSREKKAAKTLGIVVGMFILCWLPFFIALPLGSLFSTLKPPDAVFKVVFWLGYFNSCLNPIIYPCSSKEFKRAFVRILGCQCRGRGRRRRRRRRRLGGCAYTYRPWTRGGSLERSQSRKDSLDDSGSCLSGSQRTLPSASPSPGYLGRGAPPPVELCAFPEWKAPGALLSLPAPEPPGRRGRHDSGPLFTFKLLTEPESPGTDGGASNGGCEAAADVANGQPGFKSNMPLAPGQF
In words: Binding affinity to adrenergic alpha1 receptor (unknown origin).

A short description of series [9]: Aqueous solubility of the compound in second liquid of Japanese pharmacopoeia at pH 6.8 after 20 hrs by liquid chromatographic analysis. The format is physicochemical.
The target in the next series is D(2) dopamine receptor (Homo sapiens, UniProt P14416). In words: Binding affinity to dopamine D2 receptor (unknown origin).
The target of series [10] is T1, 5-hydroxytryptamine receptor 7. In words: Antagonist activity at human 5-HT7 receptor expressed in CHO cells assessed as inhibition of agonist-induced cAMP production at 10 uM incubated for 20 mins prior to substrate addition measured after 10 mins by EIA relative to control. The format is functional, cell-based.
For series [11], the target named is T2, 5-hydroxytryptamine receptor 2B. Briefly: Antagonist activity at human 5-HT2B receptor expressed in HEK293 cells coexpressing EBNA assessed as inhibition of 5-HT-induced IP metabolism incubated for 20 mins prior to substrate addition measured after 20 mins by liquid scintillation counting analysis. The format is cell-based.
The target of series [12] is T5, Muscarinic acetylcholine receptor M1 (Homo sapiens, UniProt P11229).
T5 sequence (P11229 whole entry): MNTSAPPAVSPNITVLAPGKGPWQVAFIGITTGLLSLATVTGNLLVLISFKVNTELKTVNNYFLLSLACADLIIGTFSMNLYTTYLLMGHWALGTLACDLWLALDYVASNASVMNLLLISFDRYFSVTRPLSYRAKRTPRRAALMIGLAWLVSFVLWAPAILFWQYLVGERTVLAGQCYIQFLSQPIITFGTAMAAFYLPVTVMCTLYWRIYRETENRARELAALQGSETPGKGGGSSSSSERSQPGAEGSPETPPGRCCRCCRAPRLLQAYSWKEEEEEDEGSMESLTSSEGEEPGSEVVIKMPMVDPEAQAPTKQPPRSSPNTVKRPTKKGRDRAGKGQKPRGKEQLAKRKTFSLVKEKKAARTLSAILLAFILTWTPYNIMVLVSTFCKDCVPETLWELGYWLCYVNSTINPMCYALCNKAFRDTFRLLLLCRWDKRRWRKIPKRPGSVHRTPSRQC
Briefly: Binding affinity to muscarinic M1 receptor (unknown origin).

T1 sequence (P34969 whole entry): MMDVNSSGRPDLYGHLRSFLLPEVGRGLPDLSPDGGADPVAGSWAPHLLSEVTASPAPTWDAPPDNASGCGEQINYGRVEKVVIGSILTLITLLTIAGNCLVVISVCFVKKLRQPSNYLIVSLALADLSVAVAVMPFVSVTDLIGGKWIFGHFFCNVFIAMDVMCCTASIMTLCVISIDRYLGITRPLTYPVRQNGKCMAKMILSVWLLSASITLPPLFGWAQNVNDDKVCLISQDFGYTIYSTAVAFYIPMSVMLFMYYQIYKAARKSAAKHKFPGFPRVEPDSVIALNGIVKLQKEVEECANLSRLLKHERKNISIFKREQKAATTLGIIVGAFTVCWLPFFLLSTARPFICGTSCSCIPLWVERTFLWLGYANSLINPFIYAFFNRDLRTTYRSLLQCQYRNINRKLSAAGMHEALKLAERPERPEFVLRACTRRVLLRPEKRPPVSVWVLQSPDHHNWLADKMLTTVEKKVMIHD
Sequence of D(2) dopamine receptor (P14416 whole entry): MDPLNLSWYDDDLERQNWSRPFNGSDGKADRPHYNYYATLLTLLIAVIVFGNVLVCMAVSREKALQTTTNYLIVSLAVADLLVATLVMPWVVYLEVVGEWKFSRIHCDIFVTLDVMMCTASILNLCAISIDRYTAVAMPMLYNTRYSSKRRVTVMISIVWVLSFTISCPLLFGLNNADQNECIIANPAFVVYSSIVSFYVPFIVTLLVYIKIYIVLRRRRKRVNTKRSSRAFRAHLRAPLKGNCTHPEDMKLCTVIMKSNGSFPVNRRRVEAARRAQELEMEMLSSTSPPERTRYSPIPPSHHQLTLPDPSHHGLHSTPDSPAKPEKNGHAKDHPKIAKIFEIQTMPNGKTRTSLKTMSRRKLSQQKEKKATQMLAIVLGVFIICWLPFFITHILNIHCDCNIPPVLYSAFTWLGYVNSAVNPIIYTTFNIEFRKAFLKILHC
Sequence of 5-hydroxytryptamine receptor 2A (P28223 whole entry): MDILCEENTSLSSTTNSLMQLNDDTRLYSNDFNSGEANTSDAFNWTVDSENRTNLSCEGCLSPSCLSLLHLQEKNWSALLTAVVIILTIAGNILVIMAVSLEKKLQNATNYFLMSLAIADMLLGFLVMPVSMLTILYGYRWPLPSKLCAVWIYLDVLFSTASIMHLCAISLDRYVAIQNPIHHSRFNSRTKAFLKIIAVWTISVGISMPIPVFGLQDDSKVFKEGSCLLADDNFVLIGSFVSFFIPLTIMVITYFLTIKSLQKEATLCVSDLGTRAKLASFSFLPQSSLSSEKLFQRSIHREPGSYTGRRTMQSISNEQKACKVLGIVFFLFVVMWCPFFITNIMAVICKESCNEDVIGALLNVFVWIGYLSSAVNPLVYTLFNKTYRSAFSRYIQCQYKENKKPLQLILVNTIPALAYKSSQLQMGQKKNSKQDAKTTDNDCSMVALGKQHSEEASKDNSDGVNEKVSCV
T2 sequence (P41595 whole entry): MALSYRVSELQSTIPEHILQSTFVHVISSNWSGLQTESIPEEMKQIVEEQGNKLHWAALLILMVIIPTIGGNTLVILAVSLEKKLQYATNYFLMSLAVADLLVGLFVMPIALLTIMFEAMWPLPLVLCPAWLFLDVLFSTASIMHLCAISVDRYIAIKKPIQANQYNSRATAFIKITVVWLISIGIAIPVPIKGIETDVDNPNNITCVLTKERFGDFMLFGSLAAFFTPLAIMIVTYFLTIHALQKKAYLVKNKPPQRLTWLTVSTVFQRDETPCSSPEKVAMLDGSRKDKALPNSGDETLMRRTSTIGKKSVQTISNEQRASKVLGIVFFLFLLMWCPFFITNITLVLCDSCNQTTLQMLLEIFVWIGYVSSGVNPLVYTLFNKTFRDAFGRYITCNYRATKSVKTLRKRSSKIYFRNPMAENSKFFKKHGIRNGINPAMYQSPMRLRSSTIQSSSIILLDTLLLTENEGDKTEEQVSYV

With `NC(N)=NC(=O)c1ccc2c(c1)oc1ccccc12`, the negative logarithm of the Ki (pKi) was below 7.00 in series [1] and 8.68 in series [2].
Consider `Cl.NC(N)=NC(=O)c1ccc2c(c1)C(O)c1ccccc1-2` (configuration not stated), for which the Activity with Cavia porcellus [3] is 93%; with Cavia porcellus [4] it was “Dose-dependent effect”; in the series on Cavia porcellus [6] it was “Dose-dependent effect”. Also, the pKi (in [5]; in series [7]; on D(2) dopamine receptor; in [12]) was below 6.00 throughout. In [8], this compound registered an inhibition constant Ki above 1000 nM. This compound had a solubility at 20 h in [9] below 10 µg/mL. For the same compound, the Imax in [10] was 97%. Further, the negative logarithm of the IC50 (pIC50) in series [11] is 7.71.
`NC(N)=NC(=O)c1ccc2c(c1)-c1ccccc1C2O` (configuration not stated): the values for the pKi in series [1] and in series [2] were below 6.00 and 7.06, respectively.
For `NC(N)=NC(=O)c1ccc2c(c1)[nH]c1ccccc12` the same measures were 7.38 and 8.00.
`CN1CCC(=C2c3ccccc3CCc3sccc32)CC1` [PIZOTYLINE]: the pKi in series [1] was 7.60; in [5] it was 8.12; in series [7], 8.85; at D(2) dopamine receptor, 8.62; in [2] it was 8.70; in [12], 8.70. In series [8], the Ki came out at 75 nM.
Turning to `NC(N)=NC(=O)c1cccc2c1Cc1ccccc1-2`, the pKi in series [1] is 6.62; in series [2], 8.96.
Consider `NC(N)=NC(=O)c1ccc2c(c1)Nc1ccccc1O2`, for which the negative-log Ki (pKi) in series [1] is 6.84; in [2], 8.44.
As for `NC(N)=NC(=O)c1ccc2c(c1)C(=O)c1ccccc1-2`, the pKi in series [1] is 6.73; in [2], 9.40.
For the compound `NC(N)=NC(=O)/C=C/c1ccc2c(c1)C(O)c1ccccc1-2` (configuration not stated), the values for the pKi in [1] and in series [2] were below 7.00 and 7.28, respectively.
For `NC(N)=NC(=O)c1cccc2c1-c1ccccc1C2` the same measures were below 6.00 and 7.56.
As for `NC(N)=NC(=O)c1ccc2c(c1)Oc1ccccc1N2`, the results for the pKi in series [1] and in series [2] were below 6.00 and 8.62, respectively.
On to `CC(C)c1cc(-c2ccc(F)c3ccccc23)nc(N)n1`, for which, in the series on Cavia porcellus [3], the Activity came to 60%.
Consider `NC(N)=NC(=O)c1ccc2c(c1)Cc1ccccc1-2`, for which the negative-log Ki (pKi) in [1] was 7.91; in [5], 6.00; in [7], 6.70; on D(2) dopamine receptor, 5.85; in [2], 8.74; in [12], below 6.00. Moreover, in series [8], the inhibitory constant (Ki) came to 790 nM. Moreover, the solubility at 20 h in series [9] was below 1 µg/mL. Further, the Imax in [10] was 98%. Moreover, the negative logarithm of the IC50 (pIC50) in series [11] is 7.44.
